Experimental data taken from patent US11191769B2, “Fused thiophene compounds” (BioTheryX, Inc., priority 2018, dated 2021).

Key:
Format in all cases: cell-based
TNFα = assay: TNF-α inhibition assay, LPS-induced PBMCs or CD14+ monocytes, Meso Scale; details: 1 h pretreatment, 100 ng/mL LPS 18-24 h, supernatant
Method: (§1) Either frozen primary blood mononuclear cells (PBMCs) or frozen CD14+ mobilized peripheral blood monocytes were purchased from AllCells (PB003F, Normal Peripheral Blood MNC (Alameda, Calif.)). Cells were quick thawed, washed 1-time with RPMI-1640 (10% FBS/1% Pen-Strep) and plated in 96 well plates at 200,000 cells per well. Cells were pretreated with DMSO only or with the indicated compound for 1 h and then induced with 100 ng/mL lipopolysaccharide (LPS) for 18-24 h. The supernatant was analyzed for IL-1β, IL-6, and TNFα, using Meso Scale assay according to manufacturer's protocol. The negative control wells were treated with DMSO.
(§2) In each of Tables 5-7, the % inhibition values are reported as “A”, “B”, “C”, or “D”. “A” represents a % inhibition value of less than 50% (value <50%). “B” represents a % inhibition value of equal to or more than 50% and less than 70% (50%≤value<70%). “C” represents a % inhibition value of equal to or more than 70% and less than 90% (70%≤value<90%). “D” represents a % inhibition value of equal or more than 90% (value≥90%). In Table 8, the fold-change values are reported as “A”, “B”, “C”, or “D”. “A” represents a fold-change value of equal to or less than 1 (value≤1). “B” represents a fold-change value of more than 1 and equal to or less than 2 (1<value≤2). “C” represents a fold-change value of more than 2 and equal to or less than 3 (2<value≤3). “D” represents a fold-change value of more than 3 (value>3).

IL-2 = IL-2 fold-change assay, anti-CD3 stimulated PBMCs, Mesoscale; details: PBMC, PBMCs on anti-human CD3 (OKT3) coated plates, 24 h, fold difference from the DMSO control
Method: For the IL-2 analysis, 96 well plates were precoated with 1 μg/mL anti-human CD3 antibody (OKT3, eBioscience Inc., San Diego, Calif.). After washing with PBS, the indicated compound was added (50 μL/well) followed by PBMCs diluted at 3-4 million cells/mL (150 μL/well). Plates were incubated for 24 h and the supernatants collected for Mesoscale IL-2 analysis. IL-2 activity is measured as fold difference from the DMSO control.
as §2

MOLM-13 cells = assay: MOLM-13 cell viability assay (CellTiter-Glo); details: Homo sapiens, MOLM-13, 72 h, 3 days, % of DMSO control
Method: MOLM-13 cells were cultured in RPMI 1640 media supplemented with 10% fetal bovine serum, streptomycin and penicillin, and were plated in white walled 96-well plates at 2500 cells/well. Cells were incubated in DMSO (control) or the indicated compound for 3 days at 37° C. and 5% CO2. Following the incubation period, 100 μL of CellTiterGlow (CTG) reagent (CellTiter-Glo® Luminescent Cell Viability Assay, Promega (Madison, Wis.)) was added to each well. Following a 10 minutes incubation with shaking, luminescence was measured using the EnVision Multimode plate reader.
The MOLM-13 cell viability values as % DMSO are reported as “A”, “B”, “C”, or “D”. “A” represents a % viability value of less than 25% (value<25%). “B” represents a % viability value of equal to or more than 25% and less than 50% (25%≤value<50%). “C” represents a % viability value of equal to or more than 50% and less than 75% (50%≤value<75%). “D” represents a % viability value of equal or more than 75% (value≥75%).

IKAROS = target: T1, IKAROS (Homo sapiens, UniProt Q13422+Q96SW2); assay: IKAROS degradation assay (Western blot, MV-4-11 cells); details: 6-8 hours; for IKAROS % degradation at 1 µM: MV4-11, 1 μM
T1 construct: endogenous in cells; host or cells: MV-4-11
T1 sequence (Q13422 whole entry): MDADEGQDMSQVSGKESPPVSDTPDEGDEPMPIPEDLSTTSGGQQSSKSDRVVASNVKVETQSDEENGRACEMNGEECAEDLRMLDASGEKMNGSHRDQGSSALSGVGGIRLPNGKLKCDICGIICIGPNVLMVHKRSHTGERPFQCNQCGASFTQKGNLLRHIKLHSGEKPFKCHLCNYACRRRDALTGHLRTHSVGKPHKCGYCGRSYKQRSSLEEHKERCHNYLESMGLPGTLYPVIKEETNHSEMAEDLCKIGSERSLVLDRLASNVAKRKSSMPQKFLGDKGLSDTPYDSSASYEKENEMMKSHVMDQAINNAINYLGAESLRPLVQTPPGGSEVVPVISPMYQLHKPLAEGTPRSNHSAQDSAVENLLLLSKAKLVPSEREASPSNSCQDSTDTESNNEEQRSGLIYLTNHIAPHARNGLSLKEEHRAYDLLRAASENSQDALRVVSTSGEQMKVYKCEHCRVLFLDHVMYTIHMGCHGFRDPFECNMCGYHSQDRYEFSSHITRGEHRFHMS
T1 sequence (Q96SW2 whole entry): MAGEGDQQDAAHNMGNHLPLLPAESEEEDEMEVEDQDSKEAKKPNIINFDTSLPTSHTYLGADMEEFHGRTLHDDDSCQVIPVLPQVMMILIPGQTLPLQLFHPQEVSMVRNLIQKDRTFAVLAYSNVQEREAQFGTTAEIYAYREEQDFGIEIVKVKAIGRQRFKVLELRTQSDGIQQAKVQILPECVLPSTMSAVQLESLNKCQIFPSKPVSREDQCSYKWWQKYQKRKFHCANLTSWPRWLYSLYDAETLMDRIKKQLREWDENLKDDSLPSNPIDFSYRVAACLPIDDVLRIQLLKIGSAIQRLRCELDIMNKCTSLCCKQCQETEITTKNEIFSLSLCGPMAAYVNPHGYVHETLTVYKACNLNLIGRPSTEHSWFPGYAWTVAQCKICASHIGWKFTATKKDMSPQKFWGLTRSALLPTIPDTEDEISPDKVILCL
T1 sequence (Q16531 whole entry partner): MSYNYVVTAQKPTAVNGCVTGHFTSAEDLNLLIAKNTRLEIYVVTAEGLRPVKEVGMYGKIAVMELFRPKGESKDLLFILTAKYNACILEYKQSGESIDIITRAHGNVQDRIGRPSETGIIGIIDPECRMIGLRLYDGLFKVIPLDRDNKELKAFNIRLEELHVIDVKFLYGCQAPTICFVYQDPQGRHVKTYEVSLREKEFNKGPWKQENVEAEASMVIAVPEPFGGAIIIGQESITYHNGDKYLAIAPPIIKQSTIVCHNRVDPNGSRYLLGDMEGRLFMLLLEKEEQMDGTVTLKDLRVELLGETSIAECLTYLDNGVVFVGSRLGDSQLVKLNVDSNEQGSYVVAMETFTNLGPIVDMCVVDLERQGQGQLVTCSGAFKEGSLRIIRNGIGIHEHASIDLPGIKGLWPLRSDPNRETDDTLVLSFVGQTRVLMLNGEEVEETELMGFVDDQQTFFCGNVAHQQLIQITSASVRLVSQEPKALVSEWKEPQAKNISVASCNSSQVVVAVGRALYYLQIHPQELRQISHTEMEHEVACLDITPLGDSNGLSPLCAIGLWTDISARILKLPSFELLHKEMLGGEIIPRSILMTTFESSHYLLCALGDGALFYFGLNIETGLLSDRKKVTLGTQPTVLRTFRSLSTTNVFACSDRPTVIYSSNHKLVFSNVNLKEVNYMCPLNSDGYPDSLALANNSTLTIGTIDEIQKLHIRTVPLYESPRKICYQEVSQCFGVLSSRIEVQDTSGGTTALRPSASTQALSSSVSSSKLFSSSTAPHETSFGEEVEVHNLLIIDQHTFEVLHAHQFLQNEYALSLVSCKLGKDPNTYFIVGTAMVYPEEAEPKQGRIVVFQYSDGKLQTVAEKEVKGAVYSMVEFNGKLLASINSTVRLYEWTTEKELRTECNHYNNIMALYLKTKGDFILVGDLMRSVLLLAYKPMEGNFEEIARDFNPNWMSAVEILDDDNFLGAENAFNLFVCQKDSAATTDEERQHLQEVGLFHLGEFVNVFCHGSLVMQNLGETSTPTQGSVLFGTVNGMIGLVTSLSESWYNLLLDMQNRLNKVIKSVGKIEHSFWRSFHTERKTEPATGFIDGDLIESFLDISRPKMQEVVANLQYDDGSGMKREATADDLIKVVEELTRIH
Method: (§3) MV-4-11 cells were grown in RPMI 1640 media supplemented with 10% fetal bovine serum, streptomycin and penicillin.
(§4) Cells were cultured at approximately 10^6 cells per mL and incubated in DMSO or the indicated compound for 6-8 hours. Whole cell extracts were prepared using RIPA buffer according to manufacturer's protocol (Pierce). Briefly, 3×10^6 cells were washed once in PBS, the cell pellets were resuspended in RIPA buffer and allowed to incubate for 15 minutes on ice. Cells debris was removed by centrifugation and the cleared whole cell lysates were transferred to new tubes for further analysis.
(§5) For Western blot analysis, whole cell protein extracts were separated on 4-12% SDS-polyacrylamide gels, transferred to nitrocellulose and probed with the indicated primary antibodies. Membranes were subsequently washed and probed with the appropriate IRDye secondary antibodies (LI-COR). The signal was detected using the Odyssey Imaging System (LI-COR).
(§6) The following antibodies were used in these studies: Anti-eRF3/GSPT1: Abcam, ab126090 (Cambridge, Mass.); Anti-Ikaros: Abcam, ab191394 (Cambridge, Mass.); Anti-CK1α: Abcam, ab108296 (Cambridge, Mass.); β-actin (8H10D10) mouse monoclonal antibody: Cell Signaling Technology, #3700 (Danvers, Mass.); IRDye 680RD Goat anti-rabbit antibody: LI-COR, 926-68071 (Lincoln, Nebr.); IRDye 800CW Goat anti-mouse antibody: LI-COR, 926-32210 (Lincoln, Nebr.).
(§7) In each of Tables 1-4, the % degradation values are reported as “A”, “B”, “C”, or “D”. “A” represents a % degradation value of less than 25% (value<25%). “B” represents a % degradation value of equal to or more than 25% and less than 50% (25%≤value<50%). “C” represents a % degradation value of equal to or more than 50% and less than 75% (50%≤value <75%). “D” represents a % degradation value of equal to or more than 75% (value≥75%).

CK1α = target: T2, CK1α (Homo sapiens, UniProt P48729+Q96SW2); assay: CK1α degradation assay (Western blot, MV-4-11 cells); details: MV4-11, 6-8 hours
T2 construct: Whole cell extracts were prepared using RIPA buffer; endogenous in cells; host or cells: MV-4-11
T2 sequence (P48729 whole entry): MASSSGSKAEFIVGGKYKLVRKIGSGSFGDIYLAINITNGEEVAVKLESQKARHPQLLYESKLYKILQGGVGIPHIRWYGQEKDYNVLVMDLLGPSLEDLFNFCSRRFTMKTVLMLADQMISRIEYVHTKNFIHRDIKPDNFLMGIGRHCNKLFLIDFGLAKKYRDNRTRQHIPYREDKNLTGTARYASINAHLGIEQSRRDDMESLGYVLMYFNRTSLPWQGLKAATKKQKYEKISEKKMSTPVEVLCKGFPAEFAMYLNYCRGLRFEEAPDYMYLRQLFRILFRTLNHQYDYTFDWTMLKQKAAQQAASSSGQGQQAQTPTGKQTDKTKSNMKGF
T2 sequence (Q96SW2 whole entry): as the sequence (Q96SW2 whole entry) above
T2 sequence (Q16531 whole entry partner): as the sequence (Q16531 whole entry partner) above
Method: as §3, §4, §5, §6, §7

IL-1β = IL-1β inhibition assay, LPS-induced PBMCs or CD14+ monocytes, Meso Scale; details: 1 h pretreatment, 100 ng/mL LPS 18-24 h, supernatant, read-out: I1-1β % Inhibition at 10 μM
Method: as §1, §2

IL-6 = IL-6 inhibition assay, LPS-induced PBMCs or CD14+ monocytes, Meso Scale; details: 1 h pretreatment, 100 ng/mL LPS 18-24 h, supernatant
Method: as §1, §2

Structure (SMILES)	inhibition at 10 µM (TNFα)	fold induction at 10 µM (IL-2)	viability at 10 µM (MOLM-13 cells)	IKAROS % Degradation at 10 μM (IKAROS)	percent degradation at 1 µM (CK1α)	inhibition at 10 µM (IL-1β)	IKAROS % degradation at 1 µM (IKAROS)	inhibition at 10 µM (IL-6)
O=C1CC[C@H](N2Cc3c(CNc4ccc(CN5CCOCC5)cc4)csc3C2=O)C(=O)N1 [Compound 11, (S)-3-(3-(((4-(morpholinomethyl)phenyl)amino)methyl)-6-oxo-4H-thieno[2,3-c]pyrrol-5(6H)-yl)piperidine-2,6-dione]	< 50%	1 to 2	< 25%	–	–	–	–	–
O=C1CC[C@H](N2Cc3cc(COc4ccc(CN5CCOCC5)cc4)sc3C2=O)C(=O)N1 [Compound 16, (S)-3-(2-((4-(morpholinomethyl)phenoxy)methyl)-6-oxo-4H-thieno[2,3-c]pyrrol-5(6H)-yl)piperidine-2,6-dione]	< 50%	≤ 1	–	A (“A” represents a % degradation value of less than 25% (value<25%))	–	–	–	–
CN(C)Cc1ccc(OCc2scc3c2CN([C@H]2CCC(=O)NC2=O)C3=O)cc1 [Compound 18, (S)-3-(1-((4-((dimethylamino)methyl)phenoxy)methyl)-4-oxo-4H-thieno[3,4-c]pyrrol-5(6H)-yl)piperidine-2,6-dione]	70 to 90%	2 to 3	< 25%	C (“C” represents a % degradation value of equal to or more than 50% and less than 75% (50%≤value <75%))	≥ 75%	50 to 70%	–	–
O=C1CC[C@H](N2Cc3c(csc3CCc3ccc(CN4CCOCC4)cc3)C2=O)C(=O)N1 [Compound 6, (S)-3-(1-(4-(morpholinomethyl)phenethyl)-4-oxo-4H-thieno[3,4-c]pyrrol-5(6H)-yl)piperidine-2,6-dione]	70 to 90%	2 to 3	–	–	–	70 to 90%	25 to 50%	< 50%
O=C1CC[C@H](N2Cc3c(csc3COc3cccc(CN4CCOCC4)c3)C2=O)C(=O)N1 [Compound 7, (S)-3-(1-((3-(morpholinomethyl)phenoxy)methyl)-4-oxo-4H-thieno[3,4-c]pyrrol-5(6H)-yl)piperidine-2,6-dione]	70 to 90%	2 to 3	–	–	–	70 to 90%	50 to 75%	–
O=C1CC[C@H](N2Cc3c(NCc4ccc(CN5CCOCC5)cc4)csc3C2=O)C(=O)N1 [Compound 3, (S)-3-(3-((4-(morpholinomethyl)benzyl)amino)-6-oxo-4H-thieno[2,3-c]pyrrol-5(6H)-yl)piperidine-2,6-dione]	< 50%	≤ 1	–	C (“C” represents a % degradation value of equal to or more than 50% and less than 75% (50%≤value <75%))	–	–	–	–
O=C1CC[C@H](N2C(=O)c3csc(COc4ccc(CN5CCOCC5)cc4)c3C2=O)C(=O)N1 [Compound 20, (S)-5-(2,6-dioxopiperidin-3-yl)-1-((4-(morpholinomethyl)phenoxy)methyl)-4H-thieno[3,4-c]pyrrole-4,6(5H)-dione]	50 to 70%	1 to 2	< 25%	B (“B” represents a % degradation value of equal to or more than 25% and less than 50% (25%≤value<50%))	–	50 to 70%	–	–
O=C1CC[C@H](N2Cc3c(COc4ccc(CN5CCOCC5)cc4)csc3C2=O)C(=O)N1 [Compound 5, (S)-3-(3-((4-(morpholinomethyl)phenoxy)methyl)-6-oxo-4H-thieno[2,3-c]pyrrol-5(6H)-yl)piperidine-2,6-dione]	–	1 to 2	–	–	–	–	–	–
O=C1CC[C@H](N2Cc3c(csc3COCc3ccc(CN4CCOCC4)cc3)C2=O)C(=O)N1 [Compound 9, (S)-3-(1-(((4-(morpholinomethyl)benzyl)oxy)methyl)-4-oxo-4H-thieno[3,4-c]pyrrol-5(6H)-yl)piperidine-2,6-dione]	> 90%	> 3	–	–	–	70 to 90%	–	< 50%
O=C1CC[C@H](N2Cc3c(csc3COc3ccc(CCN4CCOCC4)cc3)C2=O)C(=O)N1 [Compound 15, (S)-3-(1-((4-(2-morpholinoethyl)phenoxy)methyl)-4-oxo-4H-thieno[3,4-c]pyrrol-5(6H)-yl)piperidine-2,6-dione]	70 to 90%	> 3	–	–	25 to 50%	> 90%	25 to 50%	50 to 70%
O=C1CC[C@H](N2Cc3c(csc3COc3ccc(CN4CCOCC4)cn3)C2=O)C(=O)N1 [Compound 12, (S)-3-(1-(((5-(morpholinomethyl)pyridin-2-yl)oxy)methyl)-4-oxo-4H-thieno[3,4-c]pyrrol-5(6H)-yl)piperidine-2,6-dione]	< 50%	1 to 2	–	–	–	–	–	–
O=C1CC[C@H](N2Cc3c(csc3CNc3ccc(CN4CCOCC4)cc3)C2=O)C(=O)N1 [Compound 10, (S)-3-(1-(((4-(morpholinomethyl)phenyl)amino)methyl)-4-oxo-4H-thieno[3,4-c]pyrrol-5(6H)-yl)piperidine-2,6-dione]	> 90%	2 to 3	25 to 50%	–	–	70 to 90%	–	< 50%
O=C1CC[C@H](N2Cc3c(csc3COc3ccc(CN4CCOCC4)cc3F)C2=O)C(=O)N1 [Compound 8, (S)-3-(1-((2-fluoro-4-(morpholinomethyl)phenoxy)methyl)-4-oxo-4H-thieno[3,4-c]pyrrol-5(6H)-yl)piperidine-2,6-dione]	> 90%	2 to 3	–	–	–	> 90%	25 to 50%	70 to 90%
